From ChEMBL document CHEMBL1129930, “Analogues of methotrexate in rheumatoid arthritis. 2. Effects of 5-deazaaminopterin, 5,10-dideazaaminopterin, and analogues on type II collagen-induced arthritis in mice” (J Med Chem, 1997)

Experiments:
[1] = Concentration required to inhibit the growth of chang liver cells.; assay type: functional; conditions: Homo sapiens
L1210 = assay: Concentration required to inhibit the growth of L1210 cells.; assay type: functional, cell-based; conditions: Mus musculus
Mus musculus [2] = assay: Incidence of disease (mouse type II collagen) was scored as the percentage of animals within each experimental group that exhibited joint or limb inflammation on day 37 at intraperitoneal dose of 0.75 mg/kg; assay type: functional
Mus musculus [3] = assay: Incidence of disease (mouse type II collagen) was scored as the percentage of animals within each experimental group that exhibited joint or limb inflammation on day 37 at intraperitoneal dose of 1.5 mg/kg; assay type: functional
Mus musculus [4] = assay: Incidence of disease (mouse type II collagen) was scored as the percentage of animals within each experimental group that exhibited joint or limb inflammation on day 37 at intraperitoneal dose of 3 mg/kg; assay type: functional
Mus musculus [5] = assay: Incidence of disease (mouse type II collagen) was scored as the percentage of animals within each experimental group that exhibited joint or limb inflammation on day 23 at intraperitoneal dose of 0.38 mg/kg; assay type: functional
Mus musculus [6] = assay: Incidence of disease (mouse type II collagen) was scored as the percentage of animals within each experimental group that exhibited joint or limb inflammation on day 23 at intraperitoneal dose of 0.75 mg/kg; assay type: functional
Mus musculus [7] = assay: Incidence of disease (mouse type II collagen) was scored as the percentage of animals within each experimental group that exhibited joint or limb inflammation on day 23 at intraperitoneal dose of 1.5 mg/kg; assay type: functional
Mus musculus [8] = assay: Incidence of disease (mouse type II collagen) was scored as the percentage of animals within each experimental group that exhibited joint or limb inflammation on day 23 at intraperitoneal dose of 3 mg/kg; assay type: functional
Mus musculus [9] = assay: Incidence of disease (mouse type II collagen) was scored as the percentage of animals within each experimental group that exhibited joint or limb inflammation on day 23 at intraperitoneal dose of 6 mg/kg (1 animal died); assay type: functional
Mus musculus [10] = assay: Incidence of disease (mouse type II collagen) was scored as the percentage of animals within each experimental group that exhibited joint or limb inflammation on day 37 at intraperitoneal dose of 0.38 mg/kg; assay type: functional
Mus musculus [11] = assay: Incidence of disease (mouse type II collagen) was scored as the percentage of animals within each experimental group that exhibited joint or limb inflammation on day 44 at intraperitoneal dose of 1.5 mg/kg; assay type: functional
Mus musculus [12] = assay: Incidence of disease (mouse type II collagen) was scored as the percentage of animals within each experimental group that exhibited joint or limb inflammation on day 44 at intraperitoneal dose of 3 mg/kg; assay type: functional
Mus musculus [13] = assay: Incidence of disease (mouse type II collagen) was scored as the percentage of animals within each experimental group that exhibited joint or limb inflammation on day 44 at intraperitoneal dose of 6 mg/kg (1 animal died); assay type: functional
Mus musculus [14] = assay: Incidence of disease (mouse type II collagen) was scored as the percentage of animals within each experimental group that exhibited joint or limb inflammation on day 44 at intraperitoneal dose of 0.38 mg/kg; assay type: functional
Mus musculus [15] = assay: Incidence of disease (mouse type II collagen) was scored as the percentage of animals within each experimental group that exhibited joint or limb inflammation on day 44 at intraperitoneal dose of 0.75 mg/kg; assay type: functional
Mus musculus [16] = assay: Incidence of disease (mouse type II collagen) was scored as the percentage of animals within each experimental group that exhibited joint or limb inflammation on day 30 at intraperitoneal dose of 6 mg/kg (1 animal died); assay type: functional
Mus musculus [17] = assay: Incidence of disease (mouse type II collagen) was scored as the percentage of animals within each experimental group that exhibited joint or limb inflammation on day 30 at intraperitoneal dose of 3 mg/kg; assay type: functional
Mus musculus [18] = assay: Incidence of disease (mouse type II collagen) was scored as the percentage of animals within each experimental group that exhibited joint or limb inflammation on day 37 at intraperitoneal dose of 6 mg/kg (1 animal died); assay type: functional
Mus musculus [19] = assay: Incidence of disease (mouse type II collagen) was scored as the percentage of animals within each experimental group that exhibited joint or limb inflammation on day 30 at intraperitoneal dose of 0.38 mg/kg; assay type: functional
Mus musculus [20] = assay: Incidence of disease (mouse type II collagen) was scored as the percentage of animals within each experimental group that exhibited joint or limb inflammation on day 30 at intraperitoneal dose of 0.75 mg/kg; assay type: functional
Mus musculus [21] = assay: Incidence of disease (mouse type II collagen) was scored as the percentage of animals within each experimental group that exhibited joint or limb inflammation on day 30 at intraperitoneal dose of 1.5 mg/kg; assay type: functional
Mus musculus [22] = assay: Tested for antiinflammatory activity on mouse type II collagen arthritis as Paw swelling of all animals in each group on day 44 at intraperitoneal dose of 1.5 mg/kg; assay type: functional
Mus musculus [23] = assay: Tested for antiinflammatory activity on mouse type II collagen arthritis as Paw swelling of all animals in each group on day 30 at intraperitoneal dose of 3 mg/kg; assay type: functional
Mus musculus [24] = assay: Tested for antiinflammatory activity on mouse type II collagen arthritis as Paw swelling of all animals in each group on day 30 at intraperitoneal dose of 6 mg/kg; assay type: functional
Mus musculus [25] = assay: Tested for antiinflammatory activity on mouse type II collagen arthritis as Paw swelling of all animals in each group on day 23 at intraperitoneal dose of 0.75 mg/kg; assay type: functional
Mus musculus [26] = assay: Tested for antiinflammatory activity on mouse type II collagen arthritis as Paw swelling of all animals in each group on day 23 at intraperitoneal dose of 6 mg/kg; assay type: functional
Mus musculus [27] = assay: Tested for antiinflammatory activity on mouse type II collagen arthritis as Paw swelling of all animals in each group on day 30 at intraperitoneal dose of 0.38 mg/kg; assay type: functional
Mus musculus [28] = assay: Tested for antiinflammatory activity on mouse type II collagen arthritis as Paw swelling of all animals in each group on day 44 at intraperitoneal dose of 0.75 mg/kg; assay type: functional
Mus musculus [29] = assay: Tested for antiinflammatory activity on mouse type II collagen arthritis as Paw swelling of all animals in each group on day 44 at intraperitoneal dose of 3 mg/kg; assay type: functional
Mus musculus [30] = assay: Tested for antiinflammatory activity on mouse type II collagen arthritis as Paw swelling of all animals in each group on day 37 at intraperitoneal dose of 3 mg/kg; assay type: functional
Mus musculus [31] = assay: Tested for antiinflammatory activity on mouse type II collagen arthritis as Paw swelling of all animals in each group on day 37 at intraperitoneal dose of 6 mg/kg; assay type: functional
Mus musculus [32] = assay: Tested for antiinflammatory activity on mouse type II collagen arthritis as Paw swelling of all animals in each group on day 44 at intraperitoneal dose of 0.38 mg/kg; assay type: functional
Mus musculus [33] = assay: Tested for antiinflammatory activity on mouse type II collagen arthritis as Paw swelling of all animals in each group on day 30 at intraperitoneal dose of 0.75 mg/kg; assay type: functional
Mus musculus [34] = assay: Tested for antiinflammatory activity on mouse type II collagen arthritis as Paw swelling of all animals in each group on day 30 at intraperitoneal dose of 1.5 mg/kg; assay type: functional
Mus musculus [35] = assay: Tested for antiinflammatory activity on mouse type II collagen arthritis as Paw swelling of all animals in each group on day 37 at intraperitoneal dose of 0.38 mg/kg; assay type: functional
Mus musculus [36] = assay: Tested for antiinflammatory activity on mouse type II collagen arthritis as Paw swelling of all animals in each group on day 37 at intraperitoneal dose of 0.75 mg/kg; assay type: functional
Mus musculus [37] = assay: Tested for antiinflammatory activity on mouse type II collagen arthritis as Paw swelling of all animals in each group on day 37 at intraperitoneal dose of 1.5 mg/kg; assay type: functional
Mus musculus [38] = assay: Tested for antiinflammatory activity on mouse type II collagen arthritis as Paw swelling of all animals in each group on day 44 at intraperitoneal dose of 6 mg/kg; assay type: functional
Mus musculus [39] = assay: Tested for antiinflammatory activity on mouse type II collagen arthritis as Paw swelling of all animals in each group on day 23 at intraperitoneal dose of 0.38 mg/kg; assay type: functional

`C=CCN(Cc1cnc2nc(N)nc(N)c2c1C)c1ccc(C(=O)NC(CCC(=O)O)C(=O)O)cc1` (stereo not given) showed an IC50 [1] of 30 nM, an IC50 (L1210) of 3.4 nM and an Animals (Mus musculus [2]) of 38%. The Animals (Mus musculus [3]) was 25%, the Animals (Mus musculus [4]) was 0% and the Animals (Mus musculus [5]) was 0%. The Animals (Mus musculus [6]) was 0%, the Animals (Mus musculus [7]) was 0% and the Animals (Mus musculus [8]) was 0%. The Animals (Mus musculus [9]) was 0%, the Animals (Mus musculus [10]) was 38% and the Animals (Mus musculus [11]) was 50%. The Animals (Mus musculus [12]) was 0%, the Animals (Mus musculus [13]) was 0% and the Animals (Mus musculus [14]) was 62%. It also gave an Animals (Mus musculus [15]) of 50%, an Animals (Mus musculus [16]) of 0% and an Animals (Mus musculus [17]) of 0%. The Animals (Mus musculus [18]) was 0%, the Animals (Mus musculus [19]) was 0% and the Animals (Mus musculus [20]) was 25%. For the same compound, the Animals (Mus musculus [21]) was 12%, the Paw swelling (Mus musculus [22]) was 2.32 mm and the Paw swelling (Mus musculus [23]) was 2.12 mm. The Paw swelling (Mus musculus [24]) was 2.1 mm, the Paw swelling (Mus musculus [25]) was 2.17 mm and the Paw swelling (Mus musculus [26]) was 2.09 mm. It also gave a Paw swelling (Mus musculus [27]) of 2.17 mm, a Paw swelling (Mus musculus [28]) of 2.36 mm and a Paw swelling (Mus musculus [29]) of 2.16 mm. For the same compound, the Paw swelling (Mus musculus [30]) was 2.14 mm, the Paw swelling (Mus musculus [31]) was 2.15 mm and the Paw swelling (Mus musculus [32]) was 2.39 mm. For the same compound, the Paw swelling (Mus musculus [33]) was 2.22 mm, the Paw swelling (Mus musculus [34]) was 2.24 mm and the Paw swelling (Mus musculus [35]) was 2.3 mm. For the same compound, the Paw swelling (Mus musculus [36]) was 2.33 mm, the Paw swelling (Mus musculus [37]) was 2.26 mm and the Paw swelling (Mus musculus [38]) was 2.13 mm. For the same compound, the Paw swelling (Mus musculus [39]) was 2.17 mm.
